Assay results: patent publication US9637724B2, “Selective binding of biological targets to solid phase ureides” (AGENCY FOR SCIENCE, TECHNOLOGY AND RESEARCH, priority 2012, dated 2017)

Assays:
Bacteriophage M13 = experiment: Co-precipitation of bacteriophage M13 from phage cell culture supernatant with allantoin
Method: Phage cell culture supernatant was co-precipitated by addition of allantoin at a weight to volume ratio of 7%. pH was about 7.0. Conductivity was 20 mS. The virus was recovered by dissolving the allantoin in 50 mM Hepes, 150 mM NaCl, pH 7.0. Phage recovery was about 70%. Greater than 99% of proteins and small molecule contaminants were eliminated with the supernatant.
Example 1 was repeated at pH values of 5.0, 6.0, and 8.0% allantoin.
Example 1 was repeated at NaCl concentrations corresponding to conductivity values of 40, 60, 80, and 100 mS/cm. These salt concentrations correspond with about 400, 600, 800, and 1000 mM NaCl. […] Optimal co-precipitation occurred at 400 mM NaCl. This was interpreted to reflect suppression of mutual electrostatic repulsion among viral particles with the result of supporting higher packing density of the particles on the ureide surface.
Example 1 was repeated with 3%, 5%, and 10% allantoin. Co-precipitation efficiency, as judged by removal from supernatant, was directly correlated with allantoin concentration. Recovery increased from about 31% to 57% to 91% respectively.
Phage cell culture supernatant was precipitated with 7% allantoin at 400 mM NaCl, pH 6.0. The majority of proteins and small molecule contaminants were eliminated with the supernatant. Recovery was estimated to be in excess of 90%. […]

Attenuated Dengue virus = experiment: Co-precipitation of attenuated Dengue virus with allantoin; conditions: 7% allantoin, 600 mM NaCl, pH 6.0
Method: Attenuated Dengue virus was combined with 7% allantoin at 600 mM NaCl, pH 6.0. The supernatant was removed. The virus was recovered by dissolving the allantoin in 50 mM Hepes, pH 7.0. Recovery was estimated by immunoassay to be 70-80%.

minute virus of mice = experiment: Co-precipitation of minute virus of mice, infectivity testing of supernatant; conditions: 10% allantoin, physiological conditions, 10^10 particles per mL
From the text: A viral culture containing 10^10 particles per mL of minute virus of mice was coprecipitated under physiological conditions by addition of allantoin in an amount of 10%. Infectivity testing of the supernatant documented removal of 99.9% of the virus.

murine leukemia virus [1] = experiment: Co-precipitation of murine leukemia virus, infectivity testing of supernatant; conditions: 10% allantoin, physiological conditions, 10^10 particles per mL
From the text: A viral culture containing 10^10 particles per mL of murine leukemia virus was coprecipitated under physiological conditions by addition of allantoin in an amount of 10%. Infectivity testing of the supernatant documented removal of 99.9% of the virus.

endotoxin [2] = experiment: Endotoxin reduction from an ovalbumin solution; conditions: start about 50 EU/mL
Method: A sample of ovalbumin in 50 mM phosphate, 100 mM NaCl, pH 7.2, contaminated with about 50 EU/mL of endotoxin, was saturated with 3% allantoin, incubated for 15 minutes, following which the precipitate was removed by membrane filtration. Endotoxin content of the supernatant was reduced by more than 95%, to less than 2 EU per mL. The experiment was repeated with 10% allantoin.

endotoxin [3] = experiment: Antibody recovery and endotoxin reduction from an IgG-endotoxin mixture
Method: Endotoxin was added to 1 mg/mL human IgG in 5 mM HEPES 100 mM NaCl pH 7.0 to 22,000 EU/ml. 2% (w/v) allantoin were added to aliquots of this mixture and allowed to mix for 15 minutes at room temperature. The suspension was clarified by centrifugation. Protein and endotoxin concentrations were measured to calculate antibody recovery and endotoxin removal. 2% (w/v) allantoin reduced endotoxin twofold. Antibody recovery was unaffected by the amount of allantoin. In a subsequent series of experiments, the amount of allantoin was increased in increments, up to 10%. Antibody recovery diminished gradually to about 93% at 10% allantoin, while endotoxin removal efficiency increased to about 99%. These experiments illustrate that the use of excessive amounts of allantoin can result in a loss of some proteins. In such cases, the person of skill in the art can make an informed decision as to the most productive balance of endotoxin removal versus protein recovery, and adjust the availability of the solid phase ureide accordingly. Additional experiments with proteins ranging in size from about 12 kDa to 1 MDa indicated a definite trend whereby the loss of protein increases with increasing protein size.

endotoxin [4] = experiment: Comparison of allantoin and uric acid for removal of endotoxin from human IgG solution; conditions: 1, 2 and 4% (w/v), 13,000 EU/ml, 6.7 mg/mL human IgG, 15 minutes
Method: Endotoxin was added to a 6.7 mg/mL solution of human IgG in 5 mM Hepes, 100 mM NaCl, pH 7.0 to a final concentration of 13,000 EU/ml. 1, 2 and 4% (w/v) of either allantoin or uric acid was added to aliquots of this mixture and allowed to mix for 15 minutes at room temperature. As a control, equal amounts of potato starch were added to a separate series. Finally, the reaction mixtures were clarified by centrifugation. Protein and endotoxin concentrations were measured to calculate antibody recovery and endotoxin removal. There was no reduction in endotoxin with the addition of starch. Uric acid produced a 4-fold reduction at all concentrations. Allantoin reduced endotoxin from 5-10-fold across the experiments (low to high). Antibody recovery was greater than 90% throughout. Besides the poorer performance of uric acid, the fact that results were unchanged as a function of the amount of uric acid are puzzling, and highlight allantoin as being a preferable ureide to begin with.

[5] = Allantoin plus ethacridine treatment of IgG cell culture harvest, then TREN / T-butyl column; conditions: 1% allantoin with 0.01% ethacridine
Method: Cell-containing mammalian cell culture harvest containing a monoclonal IgG was treated by allantoin affinity with 1% allantoin in combination with 0.01% ethacridine. The sample, at a pH of about 7.2 and a conductivity of about 13.5 mS, these conditions corresponding with so-called physiological conditions, was passed over a column packed chromatography media including equal amounts of the metal affinity ligand TREN (BioWorks TREN hi-sub) and a hydrophobic ligands (Macroprep T-butyl). Antibody recovery following the previous steps was 99%. DNA was reduced by 3.5 logs, and virus was reduced by 4-5 logs. In addition, the treated sample was sparking clear, with a turbidity of about 2.0 NTU, indicating near-total removal of particulates.
The form or example 15 was followed except increasing the amount of allantoin over the course of a series of experiments, including 2%, 4%, and 8%. Antibody recovery decreased in a roughly linear fashion in inverse proportion to the amount of allantoin. Whereas recovery at 1% (example 15) was 99%, recovery at 8% was about 87%.
IgG processed as described in examples 15 and 16 was analyzed by size exclusion chromatography. […] Where aggregate content following example 15 was about 5%, it was reduced to about 1.3% at 8% allantoin. Aggregate content of membrane clarified cell harvest lacking allantoin was about 19%. […]

[6] = Cell culture harvest treated with allantoin and ethacridine, then iminodiacetic acid / TREN / butyl particle assembly; conditions: 1% allantoin, 0.025% ethacridine
Method: 1 L of cell culture harvest was treated by addition of 1% allantoin and 0.025% ethacridine and incubated stirring for 15 minutes, after which the cells and other particulates were removed by centrifugation. The supernatant was passed through an assembly containing equal proportions of styrene divinylbenzene particles substituted with iminodiacetic acid, agarose particles substituted with TREN, and acrylate particles substituted with butyl residues, with a combined volume of 50 mL, dimensions of 2.6×10 cm, and a flow rate of 25 mL/min. Initial aggregate content of greater than 12% was reduced to less than 0.1%. Excess ethacridine was removed. Host protein contamination was reduced 60%. DNA, as measured by qPCR was reduced by 6 logs. Antibody recovery was 99%.

[7] = tested on: purified DNA from salmon sperm; experiment: Treatment of purified DNA with allantoin; conditions: antibody-containing protein preparations, previous examples
Method: A 1 mg/mL preparation of purified DNA from salmon sperm was treated with 5% allantoin. More than 95% of the DNA remained soluble in the supernatant. This highlights the utility of separating virus or endotoxin contaminants from DNA preparations, such as plasmid preparations, which is otherwise extremely difficult because all three bind strongly to electropositive surfaces such as anion exchangers. […] The apparent discrepancy appears to be resolved by allantoin having little or no inherent affinity for DNA, but a very high affinity for DNA associated with other molecule, especially including DNA-compaction proteins or other compound associations of DNA with chromosomal substructures particularly including nucleosomes and their prokaryotic analogues. This further highlights the point that applications to purification of polynucleotides will likely benefit in particular from being conducted at high salt concentrations and/or the presence of organic modulators that discourage nonspecific formation of polynucleotide complexes with contaminants.

murine leukemia virus [8] = experiment: Enhancement of virus inactivation at low pH, virus infectivity; conditions: pH 4 plus 10% allantoin
Method: A cell culture supernatant containing about 10^10 particles of murine leukemia virus per mL was split into 10 aliquots. Half of the aliquots were treated by reduction of pH to 4 for the purpose of inactivating the virus. The other half was treated by the same reduction or pH plus the addition of 10% allantoin. Aliquots representing treatment at 1, 5, 10, 15, and 60 minutes were evaluated for virus infectivity. At 1 minute, inactivation absent allantoin was 1.2 logs versus 2.4 logs with allantoin. At 5 minutes, inactivation absent allantoin was 3.2 logs versus 4.5 logs with allantoin. At 10 minutes, inactivation absent allantoin was 4.3 logs versus 5.4 logs with allantoin. At 15 minutes, inactivation absent allantoin was 5.1 logs versus 5.6 logs with allantoin. At 60 minutes, inactivation absent allantoin was 5.4 logs versus 5.6 logs with allantoin. Since the sensitivity of the infectivity assay is about 5.5 logs, it is likely that the allantoin inclusion increases the level of inactivation at all time points, in addition to accelerating inactivation. It will be apparent to the person of skill in the art that combination of allantoin with other virus inactivation methods will likely have a similar enhancing effect.

endotoxin [9] = experiment: Endotoxin removal during purification of a DNA plasmid from E. coli lysate; conditions: 10% allantoin, 15 minutes
Method: Powdered allantoin was added to a final concentration of 10% in a filtered E. coli lysate containing a DNA plasmid. The mixture was stirred for 15 minutes then the solid allantoin was removed by microfiltration. 96.7% of the endotoxin was removed with the allantoin. 80% of the DNA plasmid was recovered in the filtrate. […] From the results given in the previous Examples, it will be apparent to the person of ordinary skill, that in the case of plasmids produced in mammalian cells, allantoin treatment will offer the additional benefit of virus removal.

[10] = cited from earlier work

## NC(=O)NC1NC(=O)NC1=O (stereo not drawn) [allantoin]
Bacteriophage M13; 5% allantoin, pH about 7.0, about 15 mS
  virus eliminated in the precipitate: About 60%
Bacteriophage M13; 7% allantoin, pH about 7.0, 20 mS
  proteins and small molecule contaminants eliminated with the supernatant: Greater than 99%
Attenuated Dengue virus
  Host protein contamination reduced by: 99.3%
Minute virus of mice
  removal of the virus (infectivity testing of supernatant): 99.9%
Murine leukemia virus [1]
  removal of the virus (infectivity testing of supernatant): 99.9%
Endotoxin [2]; 3% allantoin, 15 minutes
  Endotoxin content of the supernatant reduced by: more than 95%
Endotoxin [2]; 10% allantoin
  Endotoxin reduced by: more than 99.5%
Endotoxin [3]; 2% (w/v) allantoin, 22,000 EU/ml, 1 mg/mL human IgG, 15 minutes
  endotoxin reduction: twofold
Endotoxin [3]; 10% allantoin
  endotoxin removal efficiency: about 99%
Endotoxin [4]
  reduction in endotoxin: 5-10 fold
[5]
  DNA reduced by: 3.5 logs
  virus reduced by: 4-5 logs
[6]
  DNA as measured by qPCR reduced by: 6 logs
  Host protein contamination reduced: 60%
[7]
  DNA levels reduced by: 98 to 99%
Murine leukemia virus [8]; 1 minute
  virus inactivation: 2.4 logs
Murine leukemia virus [8]; 5 minutes
  virus inactivation: 4.5 logs
Murine leukemia virus [8]; 10 minutes
  virus inactivation: 5.4 logs
Murine leukemia virus [8]; 15 minutes
  virus inactivation: 5.6 logs
Murine leukemia virus [8]; 60 minutes
  virus inactivation: 5.6 logs
Endotoxin [9]
  endotoxin removed with the allantoin: 96.7%
[10]; aqueous solutions
  saturation concentration: about 36 mM

## O=C1CNC(=O)N1 [hydantoin]
[10]; times more soluble than allantoin
  solubility relative to allantoin: roughly 10 times

## O=c1[nH]c(=O)c2[nH]c(=O)[nH]c2[nH]1 [uric acid]
Endotoxin [4]
  reduction in endotoxin: 4 fold
